The subject of one assay is Candida albicans. In words: Antifungal activity against Candida albicans Y-1200-NIH at 0.25 ug/ml after 24 hr by agar well diffusion method. In kind it is functional. Conditions: read-out: DIZ. A general note: Agar diffusion results depend on both activity and mobility in agar.
The test system of the next assay is Brucella abortus. In words: Antibacterial activity against Brucella abortus RSKK-03026 at 0.25 ug/ml after 24 hr by agar well diffusion method. In kind it is functional.
Assay [1] has as its system Salmonella typhimurium. In words: Antibacterial activity against Salmonella enterica subsp. enterica serovar Typhi H NCTC 901.8394 at 0.25 ug/ml after 24 hr by agar well diffusion method. The following applies: H NCTC 901.8394, 24 h, read-out: DIZ. The class given is functional.
The subject of assay [2] is Proteus. In words: Antibacterial activity against Proteus OX2 Wrah at 0.25 ug/ml after 24 hr by agar well diffusion method. The class given is functional. The following applies: read-out: DIZ.
Assay [3] relates to Listeria monocytogenes. In words: Antibacterial activity against Listeria monocytogenes ATCC 19115 at 0.25 ug/ml after 24 hr by agar well diffusion method. In kind it is functional. Conditions: ATCC 19115, 24 h, read-out: DIZ.
The subject of assay [4] is Shigella boydii. In words: Antibacterial activity against Shigella boydii type 16 at 0.25 ug/ml after 24 hr by agar well diffusion method. The class given is functional. The following applies: type 16, 24 h, read-out: DIZ.
Assay [5] concerns Pseudomonas putida. In words: Antibacterial activity against Pseudomonas putida at 0.25 ug/ml after 24 hr by agar well diffusion method. In kind it is functional. The following applies: read-out: DIZ.
Assay [6] has as its system Escherichia coli. In words: Antibacterial activity against Escherichia coli ATCC 1280 at 0.25 ug/ml after 24 hr by agar well diffusion method. Conditions: ATCC 1280, 24 h, read-out: DIZ. The class given is functional.
Assay [7] relates to Shigella boydii. In words: Antibacterial activity against Shigella boydii type 6 RSKK-96043 at 0.25 ug/ml after 24 hr by agar well diffusion method. The class given is functional. The following applies: type 6 RSKK-96043, 24 h, read-out: DIZ.
Assay [8] has as its system Staphylococcus aureus. In words: Antibacterial activity against Staphylococcus aureus ATCC 25923 at 0.25 ug/ml after 24 hr by agar well diffusion method. The following applies: ATCC 25923, 24 h, read-out: DIZ. In kind it is functional.
Assay [9] has as its system Shigella boydii. In words: Antibacterial activity against Shigella boydii type 11 at 0.25 ug/ml after 24 hr by agar well diffusion method. In kind it is functional. Conditions: type 11, 24 h, read-out: DIZ.
Assay [10] concerns Staphylococcus aureus. In words: Antibacterial activity against Staphylococcus aureus ATCC 25923 at 25 ug after 24 hr by agar well diffusion method. The class given is functional. The following applies: ATCC 25923, 24 h, read-out: DIZ.
Assay [11] concerns Shigella boydii. In words: Antibacterial activity against Shigella boydii type 16 at 25 ug after 24 hr by agar well diffusion method. In kind it is functional. Conditions: type 16, 24 h, read-out: DIZ.
Assay [12] has as its system Listeria monocytogenes. In words: Antibacterial activity against Listeria monocytogenes ATCC 19115 at 25 ug after 24 hr by agar well diffusion method. In kind it is functional. The following applies: ATCC 19115, 24 h, read-out: DIZ.
For assay [13], the system named is Shigella boydii. In words: Antibacterial activity against Shigella boydii type 11 at 25 ug after 24 hr by agar well diffusion method. In kind it is functional. Conditions: type 11, 24 h, read-out: DIZ.
For assay [14], the system named is Proteus. In words: Antibacterial activity against Proteus OX2 Wrah at 25 ug after 24 hr by agar well diffusion method. In kind it is functional. The following applies: read-out: DIZ.
The subject of assay [15] is Salmonella typhimurium. In words: Antibacterial activity against Salmonella enterica subsp. enterica serovar Typhi H NCTC 901.8394 at 25 ug after 24 hr by agar well diffusion method. In kind it is functional. Conditions: H NCTC 901.8394, 24 h, read-out: DIZ.
Assay [16] deals with Shigella boydii. In words: Antibacterial activity against Shigella boydii type 6 RSKK-96043 at 25 ug after 24 hr by agar well diffusion method. The class given is functional. The following applies: type 6 RSKK-96043, 24 h, read-out: DIZ.
Assay [17] relates to Escherichia coli. In words: microbe, parasite or virus in culture. Conditions: ATCC 1280, 24 h, read-out: DIZ.
In assay [18] the test system is Pseudomonas putida. In words: Antibacterial activity against Pseudomonas putida at 25 ug after 24 hr by agar well diffusion method. The class given is functional. The following applies: read-out: DIZ.
Assay [19] has as its system Listeria monocytogenes. In words: Antibacterial activity against Listeria monocytogenes ATCC 19115 at 30 ug after 24 hr by agar well diffusion method. In kind it is functional. The following applies: ATCC 19115, 24 h, read-out: DIZ.
Assay [20] has as its system Staphylococcus aureus. In words: Antibacterial activity against Staphylococcus aureus ATCC 25923 at 30 ug after 24 hr by agar well diffusion method. The class given is functional. Conditions: ATCC 25923, 24 h, read-out: DIZ.
For assay [21], the system named is Pseudomonas putida. In words: Antibacterial activity against Pseudomonas putida at 30 ug after 24 hr by agar well diffusion method. The following applies: read-out: DIZ. The class given is functional.
Assay [22] deals with Salmonella typhimurium. In words: Antibacterial activity against Salmonella enterica subsp. enterica serovar Typhi H NCTC 901.8394 at 30 ug after 24 hr by agar well diffusion method. In kind it is functional. Conditions: H NCTC 901.8394, 24 h, read-out: DIZ.
The subject of assay [23] is Shigella boydii. In words: Antibacterial activity against Shigella boydii type 11 at 30 ug after 24 hr by agar well diffusion method. In kind it is functional. The following applies: type 11, 24 h, read-out: DIZ.
Assay [24] deals with Proteus. In words: Antibacterial activity against Proteus OX2 Wrah at 30 ug after 24 hr by agar well diffusion method. The class given is functional. The following applies: read-out: DIZ.
Assay [25] relates to Escherichia coli. In words: Antibacterial activity against Escherichia coli ATCC 1280 at 30 ug after 24 hr by agar well diffusion method. The class given is functional. The following applies: ATCC 1280, 24 h, read-out: DIZ.
The test system of assay [26] is Shigella boydii. In words: Antibacterial activity against Shigella boydii type 16 at 30 ug after 24 hr by agar well diffusion method. The class given is functional. The following applies: type 16, 24 h, read-out: DIZ.
Assay [27] deals with Shigella boydii. In words: Antibacterial activity against Shigella boydii type 6 RSKK-96043 at 30 ug after 24 hr by agar well diffusion method. In kind it is functional. The following applies: type 6 RSKK-96043, 24 h, read-out: DIZ.
Assay [28] relates to Salmonella typhimurium. In words: Antibacterial activity against Salmonella enterica subsp. enterica serovar Typhi H NCTC 901.8394 at 5 ug after 24 hr by agar well diffusion method. In kind it is functional. Conditions: H NCTC 901.8394, 24 h, read-out: DIZ.
Assay [29] relates to Shigella boydii. In words: Antibacterial activity against Shigella boydii type 6 RSKK-96043 at 5 ug after 24 hr by agar well diffusion method. In kind it is functional. Conditions: type 6 RSKK-96043, 24 h, read-out: DIZ.
In assay [30] the test system is Listeria monocytogenes. In words: Antibacterial activity against Listeria monocytogenes ATCC 19115 at 5 ug after 24 hr by agar well diffusion method. In kind it is functional. The following applies: ATCC 19115, 24 h, read-out: DIZ.
Assay [31] relates to Pseudomonas putida. In words: Antibacterial activity against Pseudomonas putida at 5 ug after 24 hr by agar well diffusion method. In kind it is functional. The following applies: read-out: DIZ.
In assay [32] the test system is Staphylococcus aureus. In words: microbe, parasite or virus in culture. The following applies: ATCC 25923, 24 h, read-out: DIZ.
Assay [33] relates to Shigella boydii. In words: Antibacterial activity against Shigella boydii type 16 at 5 ug after 24 hr by agar well diffusion method. The class given is functional. The following applies: type 16, 24 h, read-out: DIZ.
Assay [34] has as its system Proteus. In words: Antibacterial activity against Proteus OX2 Wrah at 5 ug after 24 hr by agar well diffusion method. In kind it is functional. The following applies: read-out: DIZ.
Assay [35] deals with Shigella boydii. In words: Antibacterial activity against Shigella boydii type 11 at 5 ug after 24 hr by agar well diffusion method. The class given is functional. Conditions: type 11, 24 h, read-out: DIZ.

Molecules are shown by their SMILES. Activity calls are given as the source filed them. The calls are words filed in the database; no cut-off is given here.

Take `CCOC(=O)c1c(/N=C/c2c(O)ccc3ccccc23)sc2c1CCC2`: the zone of inhibition at 0.25 µg/mL came out at 14 mm in the assay on Candida albicans; 6 mm in the assay on Salmonella typhimurium [1]; 5 mm with Proteus [2]; 7 mm in the assay with Listeria monocytogenes [3]; 7 mm in the assay with Shigella boydii [4]; 8 mm with Pseudomonas putida [5]. Moreover, the zone of inhibition at 0.25 µg/mL in the assay on Escherichia coli [6] worked out at 6 mm; in the assay with Shigella boydii [7] it was 6 mm; in the assay on Staphylococcus aureus [8], 14 mm; with Shigella boydii [9], 8 mm. Besides, the “diameter of the inhibition zone (DIZ)” value in the assay with Brucella abortus is “inactive”.
Take `Cc1cc(NS(=O)(=O)c2ccc(N)cc2)no1` [SULFAMETHOXAZOLE]: the zone of inhibition at 25 µg/disc in the assay on Staphylococcus aureus [10] was found to be 24 mm; with Shigella boydii [11] it was 20 mm; in the assay on Listeria monocytogenes [12] it was 11 mm; with Shigella boydii [13], 19 mm; in the assay with Proteus [14] it was 20 mm; in the assay with Salmonella typhimurium [15], 17 mm. Besides, the zone of inhibition at 25 µg/disc with Shigella boydii [16] came out at 20 mm; with Escherichia coli [17], 18 mm; with Pseudomonas putida [18] it was 18 mm.
Consider `CC1(C)S[C@@H]2[C@H](NC(=O)[C@H](N)c3ccc(O)cc3)C(=O)N2[C@H]1C(=O)O` [AMOXICILLIN], for which the zone of inhibition at 30 µg/disc in the assay with Listeria monocytogenes [19] was 22 mm; in the assay with Staphylococcus aureus [20], 30 mm; with Pseudomonas putida [21] it was 15 mm; with Salmonella typhimurium [22] it was 19 mm; in the assay on Shigella boydii [23], 24 mm; in the assay on Proteus [24], 17 mm. Further, the zone of inhibition at 30 µg/disc in the assay with Escherichia coli [25] amounted to 14 mm; in the assay with Shigella boydii [26], 14 mm; in the assay on Shigella boydii [27] it was 19 mm.
Regarding `O=C(O)c1cn(C2CC2)c2cc(N3CCNCC3)c(F)cc2c1=O` [CIPROFLOXACIN], the zone of inhibition at 5 µg/disc with Salmonella typhimurium [28] came out at 23 mm; in the assay on Shigella boydii [29], 30 mm; with Listeria monocytogenes [30] it was 17 mm; in the assay on Pseudomonas putida [31] it was 20 mm; in the assay with Staphylococcus aureus [32], 25 mm; in the assay with Shigella boydii [33], 20 mm. For the same compound, the zone of inhibition at 5 µg/disc in the assay with Proteus [34] worked out at 27 mm; in the assay with Shigella boydii [35], 25 mm.
In the case of `NC[C@H]1O[C@H](O[C@H]2[C@H](O)[C@@H](O[C@H]3O[C@H](CO)[C@@H](O)[C@H](N)[C@H]3O)[C@H](N)C[C@@H]2N)[C@H](O)[C@@H](O)[C@@H]1O` [KANAMYCIN], the zone of inhibition at 30 µg/disc in the assay on Listeria monocytogenes [19] worked out at 15 mm; with Staphylococcus aureus [20], 25 mm; in the assay with Pseudomonas putida [21] it was 14 mm; in the assay on Salmonella typhimurium [22], 20 mm; in the assay on Shigella boydii [23], 14 mm; in the assay with Proteus [24], 25 mm. For the same compound, the values for the zone of inhibition at 30 µg/disc in the assay with Escherichia coli [25], in the assay with Shigella boydii [26] and in the assay on Shigella boydii [27] were 25 mm, 16 mm and 15 mm, respectively.

(Values after ChEMBL document CHEMBL3046942, “Synthesis and biological activity of new cycloalkylthiophene-Schiff bases and their Cr(III) and Zn(II) complexes” (2010).)
